From patent US20090209644A1, “LIPOTOXICITY RELIEVING AGENT” (priority 2005, published 2009)
Where two headings read alike, the source gives them in different places.

How the values were obtained:
[1] = test system: Min6 cells from mouse pancreatic β-cell; test: Inhibition (prophylaxis) of lipotoxicity-impaired glucose-stimulated insulin secretion in Min6 cells (Experimental Example 1); type: cell-based; details: for insulin secretion (amount of insulin per mg of the protein): stimulated with 20 mM glucose
Protocol: Min6 cells from mouse pancreatic β-cell (provided by Dr. Miyazaki of Osaka University) suspended in DMEM medium (manufactured by GIBCO, purchased from Iwai Chemicals Company) were seeded in a 24 well plate at 1.5×10^5 cells per well, and the cells were incubated in 5% CO2 at 37° C. for 24 hours. The medium was replaced with DMEM medium (manufactured by Sigma) containing 0.5% (v/v) fatty acid free bovine serum albumin (hereinafter abbreviated as BSA) and 5.5 mM glucose, and incubated in 5% CO2 at 37° C. for 48 hours with or without (control group) one of the following fatty acids, 0.4 mM palmitic acid (palmitic acid group), 50 μM EPA (EPA group), or 0.4 mM palmitic acid and 50 μM EPA (the group of palmitic acid plus EPA). The supernatant was removed from the cell culture of (1), and the cells were washed twice with phosphate buffered saline (hereinafter abbreviated as PBS(−)), and after adding 500 μL of Krebs-Ringer-Bicarbonate-Hepes buffer (hereinafter abbreviated as KRBH buffer) containing 0.5% (v/v) fatty acid free BSA and 2.8 mM glucose, the incubated was continued in 5% CO2 at 37° C. for 1 hour. The supernatant was removed from the cell culture, and after adding 500 μL of KRBH buffer containing 0.5% (v/v) BSA and 2.8 mM glucose, the incubation was continued in 5% CO2 at 37° C. for 1 hour, and the supernatant was collected as the sample which had been stimulated with 2.8 mM glucose. Next, the cells were washed twice with PBS(−), and incubated in KRBH buffer containing 0.5% (v/v) BSA and 20 mM glucose in 5% CO2 at 37° C. for 1 hour. The supernatant was collected as the sample which had been stimulated with 20 mM glucose. The samples collected were evaluated for their insulin concentration by Levis insulin assay kit (manufactured by Shibayagi and purchased from Nakayama Co., Ltd.) and for their protein concentration by the method of […] (BCA kit), and determine the amount of insulin per mg of the protein.

[2] = test system: Min6 cells; test: Restoration of impaired insulin secretion in Min6 cells after palmitic acid load (Experimental Example 2); type: cell-based, mouse; details: Min6, 0.4 mM palmitic acid load 48 h, 20 mM glucose; for insulin secretion, % of normal group: normal group = 100%
Protocol: (1-1) Min6 cells suspended in DMEM medium (manufactured by Gibco) were seeded in a 24 well plate at 1.5×10^5 cells per well, and the cells were incubated overnight in 5% CO2 at 37° C. (1-2) To each well, palmitic acid was added to a concentration of 0.4 mM, and BSA not containing the fatty acid was added to a concentration of 0.5% (v/v), and the incubation was continued in 5% CO2 at 37° C. for 48 hours. (1-3) The cells were washed twice with PBS(−), and the incubation was continued in 5% CO2 at 37° C. for 48 hours in DMEM medium (manufactured by Sigma) after adding palmitic acid (palmitic acid group), oleic acid (oleic acid group), EPA (EPA group), or DHA (DHA group) at 50 μM, or in the absence of the fatty acid (control group). In the meanwhile, the Min6 cells cultured in the above (1-1) were incubated in the DMEM medium (manufactured by Sigma) for 48 hours as in the case of the above (1-2) but without adding the 0.4 mM palmitic acid (normal group), and these cells were washed twice with the PBS(−) and incubated in the DMEM medium (manufactured by Sigma) in the absence of the fatty acid in 5% CO2 at 37° C. for another 48 hours as in the case of the control group of the above (1-3) to prepare the sample (normal group). The stimulation with glucose was conducted by repeating the procedure of Experimental Example 1(2), and the sample that had been stimulated with 2.8 mM glucose and the sample that had been stimulated with 20 mM glucose were collected and the amount of insulin per mg of the protein were measured.

[3] = Blood (serum) free fatty acid in palmitic acid fed mice (Experimental Example 3); type: in vivo, mice (C57BL/6J); details: feed with 20% by weight tripalmitic acid, 28 days, vs control group
Source text: Male mice (C57BL/6J, 8 week old, purchased from Clea Japan, Inc.) were fed on fish meal free F1 (manufactured by Funabashi Farms Co., Ltd.) for 1 week, and the mice were divided into 4 groups each including 9 to 10 mice. The 4 groups of mice were freely fed for 28 days on (1) fish meal free F1 (control group), (2) fish meal free F1 containing 20% by weight of tripalmitic acid added (palmitic acid group), (3) F1 feed not containing any fish meal having 20% by weight of tripalmitic acid and 5% by weight of EPA-E added (the group of palmitic acid plus EPA), and (4) F1 feed not containing any fish meal having 5% by weight of EPA-E added (EPA group). Before the start of the experiment, on 14th day, and on the final day, blood was taken from orbital venous plexus after fasting for 16 hours. The serum was separated, and blood free fatty acid was enzymatically measured by using NEFA Test Wako (Wako Pure Chemical Industries, Ltd.). […] The glucose-stimulated insulin secretion was then evaluated according to the procedure described in Experimental Example 1-(2).

[4] = test system: Langerhans' islet (pancreatic β-cell); test: Glucose-stimulated insulin secretion of Langerhans' islet isolated from fed mice (Experimental Example 3); type: in vivo, mice (C57BL/6J); details: 20 mM glucose; for insulin secretion, % of control group: control = 100%
Source text: Male mice (C57BL/6J, 8 week old, purchased from Clea Japan, Inc.) were fed on fish meal free F1 (manufactured by Funabashi Farms Co., Ltd.) for 1 week, and the mice were divided into 4 groups each including 9 to 10 mice. The 4 groups of mice were freely fed for 28 days on (1) fish meal free F1 (control group), (2) fish meal free F1 containing 20% by weight of tripalmitic acid added (palmitic acid group), (3) F1 feed not containing any fish meal having 20% by weight of tripalmitic acid and 5% by weight of EPA-E added (the group of palmitic acid plus EPA), and (4) F1 feed not containing any fish meal having 5% by weight of EPA-E added (EPA group). Before the start of the experiment, on 14th day, and on the final day, blood was taken from orbital venous plexus after fasting for 16 hours. The serum was separated, and blood free fatty acid was enzymatically measured by using NEFA Test Wako (Wako Pure Chemical Industries, Ltd.). Langerhans' islet was isolated by way of density gradient method from the pancreas that had been treated with collagenase, and cultivated in 10% (v/v) fetal bovine serum (purchased from Iwai Chemicals Company) and RPM 11640 medium) supplemented with 1% by weight of penicillin streptomycin (manufactured by Sigma) in 5% CO2 at 37° C. for 2 hours. The glucose-stimulated insulin secretion was then evaluated according to the procedure described in Experimental Example 1-(2). The Langerhans' islet was washed with PBS(−) and vigorously shaked in […] of TNE buffer (0.1M Tris-HCl, pH 7.4, 2M NaCl, 10 mM EDTA) to prepare the cell lysate. 20 μL of this cell lysate was added to 100 μL of chromogenic solution (1.2 μL of Hoechst 33258 (manufactured by Wako Pure Chemical Industries, Ltd.) added to 1 mL of TNE buffer), and the reaction was allowed to proceed at room temperature for at least 8 hours, and the measurement was conducted by using an excitation wavelength of 350 nm and a measurement wavelength of 450 nm. Similar evaluation was conducted by using bovine thymus DNA (manufactured by Sigma) to prepare a calibration curve to thereby enable determination of the DNA amount. Amount of insulin per μg of the DNA of the Langerhans' islet was measured.

[5] = test system: Langerhans' islet; test: Combined use of EPA and tolbutamide on palmitic acid-suppressed insulin secretion of isolated Langerhans' islet (Experimental Example 4); type: cell-based, mice (C57BL/6J); details: mouse islets; for activity at 400 µM / activity at 5000 µM: Mus musculus, read-out: insulin secretion, % of control group; for activity at 400 µM / activity at 5000 µM / insulin secretion, % of control group: control = 100%
Protocol: Langerhans' islet was isolated from the pancreas of male mice (C57BL/6J, 8 week old, purchased from Clea Japan, Inc.) and cultured according to the procedure of Experimental Example 3, and effect of 50 μM EPA alone (the group of palmitic acid plus EPA), 5 mM tolbutamide alone (the group of palmitic acid plus tolbutamide), and combined use of 50M EPA and 5 mM tolbutamide (the group of palmitic acid plus the combination) on the suppression of the insulin secretion stimulated with 20 mM glucose and the insulin secretion stimulated with 30 mM KCl induced by 0.4 mM palmitic acid were measured according to the procedure of Experimental Example 1. Amount of insulin per 1 ng DNA of the Langerhans' islet was evaluated according to the procedure of Experimental Example 3.

[6] = then 48 h without fatty acid (control group)
[7] = islets of mice fed 20% tripalmitic acid 28 days
[8] = 0.4 mM palmitic acid plus 50 μM EPA, 5 mM tolbutamide or both, 20 mM glucose
[9] = 0.4 mM palmitic acid plus 50 μM EPA, 5 mM tolbutamide or both, 30 mM KCl
[10] = 0.4 mM palmitic acid plus 50 μM EPA, 5 mM tolbutamide or both, stimulated with 20 mM glucose
[11] = 0.4 mM palmitic acid plus 50 μM EPA, 5 mM tolbutamide or both, stimulated with 30 mM KCl
[12] = islets of mice fed 5% EPA-E alone 28 days
[13] = islets of mice fed 20% tripalmitic acid and 5% EPA-E 28 days

CCCCCCCCCCCCCCCC(=O)O [palmitic acid]
insulin secretion (amount of insulin per mg of the protein) ([1]; Min6, 0.4 mM palmitic acid alone 48 h): 0.00091 mg | activity at 400 µM ([1]; Mus musculus, Min6, 0.4 mM palmitic acid alone 48 h, 20 mM glucose, control = 100%, read-out: insulin secretion, % of control group): 23.7% | insulin secretion (amount of insulin per mg of the protein) ([2]; then 50 μM fatty acid 48 h): 0.000742 mg | insulin secretion, % of normal group ([2]; then 50 μM fatty acid 48 h): 14.8% | insulin secretion (amount of insulin per mg of the protein) [2, 6]: 0.002481 mg | insulin secretion, % of normal group [2, 6]: 49.6% | serum free fatty acid concentration [3]: increased more significantly with time | insulin secretion (amount of insulin per μg of the DNA of the Langerhans' islet) [4, 7]: 0.0046 µg | insulin secretion, % of control group [4, 7]: 63% | activity at 400 µM ([5]; 0.4 mM palmitic acid alone, 20 mM glucose): 55.6% | activity at 400 µM ([5]; 0.4 mM palmitic acid alone, 30 mM KCl): 39.3% | insulin secretion (amount of insulin per 1 ng DNA of the Langerhans' islet) ([5]; 0.4 mM palmitic acid alone, stimulated with 20 mM glucose): 572 pg | insulin secretion (amount of insulin per 1 ng DNA of the Langerhans' islet) ([5]; 0.4 mM palmitic acid alone, stimulated with 30 mM KCl): 229 pg

CCCCNC(=O)NS(=O)(=O)c1ccc(C)cc1 [tolbutamide]
activity at 5000 µM [5, 8]: 65.4% | activity at 5000 µM [5, 9]: 54.2% | insulin secretion (amount of insulin per 1 ng DNA of the Langerhans' islet) [5, 10]: 673 pg | insulin secretion (amount of insulin per 1 ng DNA of the Langerhans' islet) [5, 11]: 316 pg

CC/C=C\C/C=C\C/C=C\C/C=C\C/C=C\CCCC(=O)O [EPA, eicosapentaenoic acid]
insulin secretion (amount of insulin per mg of the protein) ([1]; Min6, 50 μM EPA alone 48 h): 0.003664 mg | insulin secretion, % of control group ([1]; Min6, 0.4 mM palmitic acid and 50 μM EPA 48 h, 20 mM glucose, control = 100%): 54.6% | insulin secretion (amount of insulin per mg of the protein) ([1]; Min6, 0.4 mM palmitic acid and 50 μM EPA 48 h): 0.002096 mg | activity at 50 µM ([1]; Mus musculus, Min6, 50 μM EPA alone 48 h, 20 mM glucose, control = 100%, read-out: insulin secretion, % of control group): 95.5% | insulin secretion (amount of insulin per mg of the protein) ([2]; then 50 μM fatty acid 48 h): 0.004278 mg | insulin secretion, % of normal group ([2]; then 50 μM fatty acid 48 h): 85.4% | insulin secretion (amount of insulin per μg of the DNA of the Langerhans' islet) [4, 12]: 0.0089 µg | insulin secretion, % of control group [4, 12]: 121% | insulin secretion (amount of insulin per μg of the DNA of the Langerhans' islet) [4, 13]: 0.0082 µg | insulin secretion, % of control group [4, 13]: 111% | insulin secretion, % of control group [5, 8]: 80.0% | insulin secretion, % of control group [5, 9]: 72.4% | insulin secretion (amount of insulin per 1 ng DNA of the Langerhans' islet) [5, 10]: 823 pg | insulin secretion (amount of insulin per 1 ng DNA of the Langerhans' islet) [5, 11]: 422 pg

CC/C=C\C/C=C\C/C=C\C/C=C\C/C=C\C/C=C\CCC(=O)O [DHA, docosahexaenoic acid]
insulin secretion (amount of insulin per mg of the protein) ([2]; then 50 μM fatty acid 48 h): 0.004073 mg | insulin secretion, % of normal group ([2]; then 50 μM fatty acid 48 h): 81.4%

CCCCCCCC/C=C\CCCCCCCC(=O)O [oleic acid]
insulin secretion (amount of insulin per mg of the protein) ([2]; then 50 μM fatty acid 48 h): 0.000659 mg | insulin secretion, % of normal group ([2]; then 50 μM fatty acid 48 h): 13.2%
